Source: patent US20240351996A1, “CDK19-SELECTIVE INHIBITORS, AND METHODS OF USE THEREOF” (CZ BIOHUB SF, LLC, priority 2022, published 2024)

Tests used:
[1] = target: CDK19/CycC (Homo sapiens, UniProt Q9BWU1); assay: LanthaScreen europium kinase binding assay (FRET displacement), CDK19; settings: for CDK19 Selectivity: CDK19/CDK8 selectivity based on IC50 values; for IC50: his-tagged CDK19/CycC 5 nM, tracer 10 nM, 3 h incubation
Procedure: (§1) FRET Displacement Assay to Measure IC50: The CDK19/CDK8 IC50 values were measured to evaluate activity and to determine CDK19/CDK8 selectivity. The IC50 values of the disclosed compounds was measured using a LanthaScreen™ europium kinase binding assay (ThermoFisher), as described herein.
To a kinase buffer cocktail solution (i.e., 5× Kinase Buffer A) was added: purified recombinant his-tagged CDK19/CycC protein (5 nM), ATP-competitive kinase inhibitor scaffold kinase tracer Alexa Fluor® 665 (10 nM), biotin anti-his tag antibody (2 nM), LanthaScreen® europium-streptavidin (2 nM). An aliquot of the cocktail solution (10 μL) was added to each well of a LUMITRAC™ 200:384 flat bottom, non-treated microtiter white plate. The plate was then covered to protect light sensitive reagents and incubated for 30 min at room temperature to equilibrate before addition of any inhibitors.
(§2) A serial dilution of the compounds was titrated into each well using an automated liquid handling Staccato integrated system at the following concentration(s) (Log10 Molar [C]): −4.5, −5.0, −5.5, −6.0, −6.5, −7.0, −7.5, −8.0 so that a complete dose-response could be calculated. A Tecan microplate reader infinite m200 instrument was then used to measure the FRET signal of each individual well using an excitation of 317/20 nm, emission europium of 620/12 nm, and emission kinase tracer of 665/12 nm after a 3 h incubation period at room temperature until steady-state kinetics were achieved.
(§3) Results were performed in duplicate and were repeated a total of 3 independent times before data was normalized to the DMSO control group and IC50 values reported.

[2] = target: CDK8 (Homo sapiens, UniProt P49336); assay: LanthaScreen europium kinase binding assay (FRET displacement), CDK8
Procedure: as §1
[…] An aliquot of the cocktail solution (10 μL) was added to each well of a LUMITRAC™ 200:384 flat bottom, non-treated microtiter white plate. The plate was then covered to protect light sensitive reagents and incubated for 30 min at room temperature to equilibrate before addition of any inhibitors.
as §2, §3

CDK19/CycC, sequence (Q9BWU1 whole entry): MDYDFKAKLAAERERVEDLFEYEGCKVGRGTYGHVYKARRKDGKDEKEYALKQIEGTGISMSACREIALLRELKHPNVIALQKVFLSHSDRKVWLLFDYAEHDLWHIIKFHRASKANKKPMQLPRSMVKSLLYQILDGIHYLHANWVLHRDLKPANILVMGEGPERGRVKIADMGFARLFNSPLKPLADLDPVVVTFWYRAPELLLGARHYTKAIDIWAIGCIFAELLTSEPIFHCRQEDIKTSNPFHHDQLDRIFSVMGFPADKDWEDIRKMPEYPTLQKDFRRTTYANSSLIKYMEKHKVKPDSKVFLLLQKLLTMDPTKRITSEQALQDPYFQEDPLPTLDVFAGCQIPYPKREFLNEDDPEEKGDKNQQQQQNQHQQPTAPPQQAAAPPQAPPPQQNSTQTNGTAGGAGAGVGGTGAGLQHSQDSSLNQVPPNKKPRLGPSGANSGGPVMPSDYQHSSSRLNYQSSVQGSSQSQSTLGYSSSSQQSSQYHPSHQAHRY
CDK19/CycC, sequence (P24863 whole entry partner): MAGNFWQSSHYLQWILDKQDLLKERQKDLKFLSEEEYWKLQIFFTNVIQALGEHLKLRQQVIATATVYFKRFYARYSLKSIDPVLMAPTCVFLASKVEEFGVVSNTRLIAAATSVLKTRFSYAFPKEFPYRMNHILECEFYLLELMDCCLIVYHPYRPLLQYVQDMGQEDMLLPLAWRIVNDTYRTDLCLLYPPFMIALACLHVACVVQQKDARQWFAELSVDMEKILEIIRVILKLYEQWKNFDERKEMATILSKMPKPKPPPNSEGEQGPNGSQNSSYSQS
CDK8, sequence (P49336 whole entry): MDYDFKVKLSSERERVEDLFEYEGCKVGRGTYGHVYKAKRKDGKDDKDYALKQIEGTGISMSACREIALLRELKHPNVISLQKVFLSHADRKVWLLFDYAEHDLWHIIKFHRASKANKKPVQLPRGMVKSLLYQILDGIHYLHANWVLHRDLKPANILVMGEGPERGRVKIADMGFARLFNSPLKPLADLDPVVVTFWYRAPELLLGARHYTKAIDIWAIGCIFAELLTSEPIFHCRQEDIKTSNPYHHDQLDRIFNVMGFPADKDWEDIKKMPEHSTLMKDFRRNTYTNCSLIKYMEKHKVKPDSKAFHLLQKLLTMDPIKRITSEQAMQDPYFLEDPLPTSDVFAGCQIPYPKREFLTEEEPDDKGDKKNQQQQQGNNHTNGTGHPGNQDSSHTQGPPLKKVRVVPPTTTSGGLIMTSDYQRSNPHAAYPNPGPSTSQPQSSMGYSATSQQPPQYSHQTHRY
CDK8, sequence (P24863 whole entry partner): as the sequence (P24863 whole entry partner) above

Structure (SMILES) | CDK19 Selectivity [1] | IC50 [1] [nM] | IC50 [2] [nM]
Cc1cnccc1Nc1cnc(Nc2ccc(CC(C)C)cc2F)nc1 [Compound A59] | 2 | 11 | 23
COc1cnccc1Nc1cnc(Nc2ccc(CC(C)C)cc2F)nc1 [Compound A61] | 1 | 7.6 | 7
Cc1cncc(F)c1Nc1cnc(Nc2ccc(CC(C)C)cc2)nc1 [Compound A62] | 1.5 | ≤ 2.5 | 3
CC(C)Cc1ccc(Nc2ncc(Nc3cncnc3)cn2)cc1 [Compound A63] | 4.8 | 1600 | 7790
CCc1cnc(C)cc1Nc1cnc(Nc2ccc(CC(C)C)cc2)nc1 [Compound A64] | 2.3 | 389 | 905
Cc1cc(Nc2cnc(Nc3ccc(CC(C)C)cc3)nc2)c(C)cn1 [Compound A65] | 2 | 1160 | 2270
Cc1cncc(C)c1Nc1cnc(Nc2ccc(CC(C)C)cc2)nc1 [Compound A66] | 1.2 | 4.6 | 5.8
FC(F)C(F)(F)Oc1ccc(Nc2ncc(Nc3ccncc3OC3CCCC3)cn2)cc1 [Compound A67] | 1 | 106 | 106
CCc1cnccc1Nc1cnc(Nc2ccc(C3CCCCC3)cc2)nc1 [Compound A68] | 1 | 12 | 12
O=C(c1ccncc1)c1cnc(Nc2ccc(F)cc2)nc1 [Compound A69] | 1.9 | 1410 | 2670
CC(C)Cc1ccc(Nc2ncc(C(=O)c3ccncc3)cn2)cc1 [Compound A70] | ≥18 | ≤ 2.5 | 46
Cc1cc(C(=O)c2cnc(Nc3ccc(CC(C)C)cc3)nc2)ccn1 [Compound A71] | 3 | ≤ 2.5 | 6
CC(C)Cc1ccc(Nc2ncc(C(=O)c3ccncc3C3CC3)cn2)cc1 [Compound A72] | ≥14 | ≤ 2.5 | 34
Cc1cnccc1C(=O)c1cnc(Nc2ccc(CC(C)C)cc2)nc1 [Compound A73, (2-((4-isobutylphenyl)amino)pyrimidin-5-yl) (3-methylpyridin-4-yl) methanone] | ≥6 | ≤ 2.5 | 16
O=C(c1ccncc1)c1ccc(Nc2ccc(F)cc2)nc1 [Compound A75] | 3.9 | 296 | 1160
CC(C)Cc1ccc(Nc2ccc(-c3ccccc3)cn2)cc1 [Compound A76] | 3 | 1720 | 5100
Cc1ccc(-c2ccc(Nc3ccc(CC(C)C)cc3)nc2)cc1 [Compound A77] | 3.5 | 1080 | 3760
CC(C)Cc1ccc(Nc2ccc(C(=O)c3ccncc3)cn2)cc1 [Compound A78] | 2.6 | 5 | 13
CC(C)Cc1ccc(Nc2ccc(-c3ccc(C#N)cc3)cn2)cc1 [Compound A79] |  | 10000 | 10000
CC(C)Cc1ccc(Nc2ccc(-c3ccncc3)cn2)cc1 [Compound A80] | 3 | 3330 | 10000
Fc1ccc(Nc2ccc(Oc3ccncc3)cn2)cc1 [Compound A81] |  | 10000 | 10000
CC(C)Cc1ccc(Nc2ccc(-c3cccnc3)cn2)cc1 [Compound A82] | 1.5 | 131 | 193
CC(C)Cc1ccc(Nc2ccc(Oc3ccncc3)cn2)cc1 [Compound A83] | 1 | 5900 | 8300
Fc1ccc(Nc2ccc(Nc3ccncc3)cn2)cc1 [Compound A84] |  | 10000 | 10000
CC(C)Cc1ccc(Nc2ccc(Nc3ccncc3)cn2)cc1 [Compound A85] | 3.8 | 72 | 268
Cc1cccc(-c2cnc(Nc3ccc(CC(C)C)cc3)nc2)c1 [Compound A86] | 9 | 1110 | 10000
CC(C)Cc1ccc(Nc2ncc(-c3cccnc3)cn2)cc1 [Compound A87] | 2.4 | 84 | 198

Structure (SMILES) | CDK19 Selectivity [1] | IC50 [1] [nM] | IC50 [2] [nM]
Cc1cc(C)cc(-c2cnc(Nc3ccc(CC(C)C)cc3)nc2)c1 [Compound A88] | 2.7 | 557 | 1490
CC(C)Cc1ccc(Nc2ncc(-c3ccc(C#N)cc3)cn2)cc1 [Compound A89] |  | 10000 | 10000
Cc1cc(C#N)ccc1-c1cnc(Nc2ccc(CC(C)C)cc2)nc1 [Compound A90] | 4.6 | 1060 | 4860
Cc1cc(-c2cnc(Nc3ccc(CC(C)C)cc3)nc2)ccc1C#N [Compound A91] | 12 | 798 | 10000
CC(C)Cc1ccc(Nc2ncc(-c3cccc(C#N)c3)cn2)cc1 [Compound A92] | 3 | 335 | 1020
Cc1ccc(C#N)cc1-c1cnc(Nc2ccc(CC(C)C)cc2)nc1 [Compound A93] | 2 | 132 | 276
Cc1cc(C#N)cc(-c2cnc(Nc3ccc(CC(C)C)cc3)nc2)c1 [Compound A94] | 2 | 438 | 869
CC(C)Cc1ccc(Nc2ncc(-c3ccc(C#N)cn3)cn2)cc1 [Compound A95] |  | 10000 | 10000
CC(C)Cc1ccc(Nc2ncc(-c3cc(C#N)ccn3)cn2)cc1 [Compound A96] | 9 | 1110 | 10000
CC(C)Cc1ccc(Nc2ncc(-c3ccncc3)cn2)cc1 [Compound A99] | 5.6 | 1800 | 10000
CC(C)Cc1ccc(Nc2ncc(-c3ccc(=O)[nH]c3)cn2)cc1 [Compound A100] | 5.1 | 283 | 1430
Cc1cc(-c2cnc(Nc3ccc(CC(C)C)cc3)nc2)cc(C)n1 [Compound A101, 5-(2,6-dimethylpyridin-4-yl)-N-(4-isobutylphenyl)pyrimidin-2-amine] | 4.7 | 822 | 3840
CC(C)Cc1ccc(Nc2ncc(-c3ccccc3)cn2)cc1 [Compound A102] | 1 | 10000 | 10000
Cc1ccc(-c2cnc(Nc3ccc(CC(C)C)cc3)nc2)cc1 [Compound A103] | 1.3 | 7680 | 10000
CC(C)Cc1ccc(Nc2ncc(C(=O)c3ccncc3F)cn2)cc1 [Compound A116] | 1.9 | ≤ 2.5 | 4.1
Cc1cncc(F)c1C(=O)c1cnc(Nc2ccc(CC(C)C)cc2)nc1 [Compound A117] | 1.5 | 6490 | 10000
CC(C)Cc1ccc(Nc2ncc(C(=O)c3ccncc3Cl)cn2)cc1 [Compound A118] | 1.8 | 3.7 | 6.6
CC(C)Cc1ccc(Nc2ccc(C(=O)c3ccncc3F)cn2)cc1 [Compound A122] | 5 | 31 | 160
CC(C)Cc1ccc(Nc2ccc(C(=O)c3ccncc3Cl)cn2)cc1 [Compound A123] | 5 | 41 | 201
Cc1cc(CC(C)C)ccc1Nc1ncc(C(=O)c2ccncc2)cn1 [Compound A128] | 3.8 | 8.9 | 34
CC(C)Cc1ccc(Nc2ncc(C(=O)c3ccncc3)cn2)c(F)c1 [Compound A129] | 2.4 | ≤ 2.5 | 3.5
COc1cc(CC(C)C)ccc1Nc1ncc(C(=O)c2ccncc2)cn1 [Compound A131] | 1.8 | 5.7 | 10
CC(C)Cc1ccc(Nc2ncc(C(=O)c3cccnc3)cn2)cc1 [Compound A133] | 3 | 265 | 797
CC(C)Cc1ccc(Nc2ncc(Cc3ccncc3)cn2)cc1 [Compound A138] | 4.8 | 5 | 24
CC(C)Cc1ccc(Nc2ncc(C(F)(F)c3ccncc3)cn2)cc1 [Compound A139] | 3.2 | 5.5 | 18
CC(C)Cc1ccc(Nc2ncc(-c3cc[nH]c(=O)c3)cn2)cc1 [Compound A141] | 1 | 10000 | 10000
